# Columns and labels:
# [1] = system: basal cells and pyramidal cells of the airway epithelium; test: miRNA expression in sorted basal cells versus pyramidal cells (ciliated + secretory), HTS and Agilent chips; set-up: species or system human
# Experimental: After dissociation of the stroma of nasal polyps, the epithelial cells (about 20.10^6) are incubated in PBS-BSA-EDTA for 30 min and then incubated with labeled antibody CD151-PE and anti-TF (tissue factor)-FITC for 20 min, 4° C. (see Hajj, R. et al., Stem Cells 25, 139-148 (2007)). After washing twice, the cells are taken up in PBS-EDTA and incubated with DAPI for labeling the cells whose integrity has been altered.
# Cell sorting was carried out on the FACSAria sorter (BD Biosciences) equipped with 3 lasers, blue, red and violet. Dead cells, aggregates and double cells were excluded. The doubly positive population of basal cells (CD151+/FT+) and the negative population of cylindrical cells (containing ciliated cells and mucus-secreting cells) (CD151−/FT−) were selected and sorted at a rate of 5000 events/s ([…]). The purity and identity of the sorted cells were then verified by cytometry and immunocytochemistry.
# Like the native airway epithelium, the model of differentiation in vitro used in these tests consists of basal cells, ciliated cells and mucus-secreting cells. In order to identify the repertoires of the miRNAs specific to each of the cellular types, the inventors used cell sorting by flow cytometry by means of specific markers (Hajj, R. et al. 2007). Using this technique, adult airway progenitor cells (corresponding a priori to basal cells) were isolated, selected and sorted (such cells appear doubly positive for tetraspanin CD151 and for the tissue factor) from the pyramidal cells (i.e. ciliated cells and mucus-secreting cells) which appear negative for these same markers. These were purified from polyps or from nasal conchae obtained from 3 separate donors.
# After extracting the total RNAs, the expression profiles of the miRNAs were established by means of Agilent® commercial chips or by high-throughput sequencing (HTS). […] For the first time, the inventors thus attribute a repertoire of expression of the miRNAs specifically to separate cellular types of the airway epithelium during differentiation.
# [2] = system: human airway epithelial cells (HAECs); test: High-throughput sequencing (HTS) of miRNAs at four stages of differentiation of HAECs
# Excerpt: The total RNAs were extracted from HAECs cultivated at the air-liquid interface at four stages of differentiation: ALI-D0 (0 day), ALI-D7 (7 days), ALI-FC (during appearance of the first cilia at about 14 days) and ALI-WD (wholly differentiated at about 21 days). The cells are lysed in reagent with Trizol® (Invitrogen). The total RNAs containing small RNAs and microRNAs are purified on Qiagen RNEasy columns (Qiagen) according to the supplier's instructions.
# The total RNAs containing small RNAs and microRNAs are isolated as before. The procedure is based on the Applied Biosystems Ligase-Enhanced Genome Detection technology (LEGenD™); the SOLiD™ Small RNA Expression kit (Applied Biosystems, France) was used. With this method it is possible to convert the small RNAs of a sample into a library of double-stranded DNA; it was developed by Applied Biosystems SOLiD™ System for a new generation of high-throughput sequencing.
# The high-throughput sequencing of the microRNAs was carried out according to the supplier's recommendations. Briefly, the total RNAs containing the small RNAs are hybridized (65° C., 10 min, then at 16° C., 5 min) and ligated (16° C., 2-16 h in a thermocycler) with the Adaptor Mix A for producing a matrix for sequencing the 5′ end of the small RNAs, or with the Adaptor Mix B for sequencing the 3′ end. The samples are then reverse-transcribed (42° C., 30 min) to synthesize the complementary DNA (cDNA). The library of small RNAs is amplified by PCR and after migration on polyacrylamide gel the amplified small RNAs are cut out and extracted from the gel according to their size (length of about 105-150 bases, according to the supplier's instructions), eluted and resuspended in nuclease-free water. The concentration of nucleic acids is then measured and normalized before proceeding with preparation of the samples for sequencing.
# For each microRNA sequenced, the number of sequences of the 5p strand and of the 3p strand of the microRNA was normalized to 10^6 sequences and converted to percentage abundance of expression for each of the microRNAs. The data were then normalized according to a linear model and an empirical Bayesian method using software R. For subsequent analyses, only the microRNAs were retained for which the percentage expression (or abundance) is greater than 1% of the total of the microRNAs in at least one culture condition, with a |Log2 Ratio| below 0.5 and an adjusted P-value below 0.05.
# [3] = system: human airway epithelial cells (HAECs); test: Agilent miRNA chips, miRNA expression at four stages of differentiation of HAECs
# Excerpt: In parallel with the high-throughput sequencing of the microRNAs, the repertoire of expression of the microRNAs (microRNAome) is investigated using the technology of Agilent® microRNA chips. For this, RNA samples from the same patients as before were used, labeled and hybridized on Agilent® miRNA chips (Human miRNA Microarray v2, containing 866 human miRNAs and 89 human viral miRNAs, i.e. all the human miRNAs contained and referenced in Sanger miRBase v.12.0, Agilent Technologies, France) using the “miRNA labeling and hybridization” kit, following the supplier's instructions (Agilent Technologies).
# The inventors then used the Agilent miRNA chips to investigate the repertoire of expression of the miRNAs of the human airway epithelium and compare the results obtained in high-throughput sequencing with those obtained with Agilent® commercial miRNA chips.
substance,measurement,setting,value
"hsa-miR-34c-5p: human miRNA, SEQ ID No. 40 (AGGCAGUGUAGUUAGCUGAUUGC; expressed or natural sequence; listed as Homo sapiens)",Modulation of expression of the miRNAs in pyramidal cells (323(−)) relative to basal cells 323(+),[1]; HTS and Agilent chips,5.74
same,Intensity of the level of expression in log2 in basal cells (323(+)),[1]; basal cells,4.75 log2
same,Intensity of the level of expression in log2 in pyramidal cells (323(−)),[1]; pyramidal cells (ciliated + secretory),10.49 log2
same,"Modulation (ratio of the level of intensity of expression in log2 in two stages of differentiation) measured by high-throughput sequencing, D7 − D0","[2]; D7 − D0, Table VI",1.33 log2
same,"Modulation (ratio of the level of intensity of expression in log2 in two stages of differentiation) measured by high-throughput sequencing, FC − D7","[2]; FC − D7, Table VI",4.02 log2
same,"Modulation (ratio of the level of intensity of expression in log2 in two stages of differentiation), D7 − D0",[2]; HTS,1.33 log2
same,"Modulation (ratio of the level of intensity of expression in log2 in two stages of differentiation), FC − D7",[2]; HTS,4.02 log2
same,"Modulation (ratio of the level of intensity of expression in log2 in two stages of differentiation), WD − FC",[2]; HTS,1.06 log2
same,"Abundance (%), D0","[2]; HTS, ALI-D0",0.05%
same,"Abundance (%), D7","[2]; HTS, ALI-D7",0.13%
same,"Abundance (%), FC","[2]; HTS, ALI-FC",2.05%
same,"Abundance (%), WD","[2]; HTS, ALI-WD",3.23%
same,"Modulation (ratio of the level of intensity of expression in log2 in two stages of differentiation) measured by high-throughput sequencing, WD − D0","[2]; WD − D0, Table VI",6.41 log2
same,"Modulation (ratio of the level of intensity of expression in log2 in two stages of differentiation) measured by high-throughput sequencing, WD − FC","[2]; WD − FC, Table VI",1.06 log2
same,Level of intensity of expression in log2 At the differentiated stage (WD) measured in HTS,"[2]; healthy human airway epithelial tissue, stage WD",0.01 log2
same,"Level of intensity of expression in log2 measured by high-throughput sequencing, D0","[2]; stage D0, Table VI",7.88 log2
same,"Level of intensity of expression in log2 measured by high-throughput sequencing, D7","[2]; stage D7, Table VI",9.21 log2
same,"Level of intensity of expression in log2 measured by high-throughput sequencing, FC","[2]; stage FC, Table VI",13.23 log2
same,"Level of intensity of expression in log2 measured by high-throughput sequencing, WD","[2]; stage WD, Table VI",14.29 log2
same,"Modulation (ratio of the level of intensity of expression in log2 in two stages of differentiation) measured with the Agilent chips, D7 − D0","[3]; D7 − D0, Table VI",2.35 log2
same,"Modulation (ratio of the level of intensity of expression in log2 at two stages of differentiation), FC − D7","[3]; FC − D7, Agilent miRNA chips, Table V",4.27 log2
same,"Modulation (ratio of the level of intensity of expression in log2 in two stages of differentiation) measured with the Agilent chips, FC − D7","[3]; FC − D7, Table VI",4.27 log2
same,"Modulation (ratio of the level of intensity of expression in log2 in two stages of differentiation) measured with the Agilent chips, WD − D0","[3]; WD − D0, Table VI",7.44 log2
same,"Modulation (ratio of the level of intensity of expression in log2 at two stages of differentiation), WD − FC","[3]; WD − FC, Agilent miRNA chips, Table V",0.82 log2
same,"Modulation (ratio of the level of intensity of expression in log2 in two stages of differentiation) measured with the Agilent chips, WD − FC","[3]; WD − FC, Table VI",0.82 log2
same,"Level of intensity of expression in log2 measured with the Agilent chips, D0","[3]; stage D0, Table VI",3.94 log2
same,"Level of intensity of expression in log2 measured with the Agilent chips, D7","[3]; stage D7, Table VI",6.29 log2
same,"Level of intensity of expression in log2 measured with the Agilent chips, FC","[3]; stage FC, Table VI",10.56 log2
same,"Level of intensity of expression in log2 measured with the Agilent chips, WD","[3]; stage WD, Table VI",11.39 log2

# — patent publication US9023821B2, “Use of MicroRNA for treating diseases associated with a dysfunction of the cilia in multiciliated epithelial cells” (Centre National de la Recherche Scientifique, priority 2009, dated 2015)
